Values quoted from earlier work, collected in US20110053889A1, “Prenatal and postnatal screening and treatment of critical monosaccharide deficiencies for neurologic and immunologic function” (priority 2008, published 2011).
Like-named read-outs stand apart in the source and are kept apart here. Blank lines part the entries; values can stand above or below the compound they belong to.

Tests used:
[1] = for Estimated Safe Daily Dose (mg) in 68 kg human: 68 kg human (Gardiner, 2004); for Estimated Safe Daily Dose: based on ADME and safety data and margin-of-safety (Gardiner, 2004)
E. coli [2] = details: topical solution applied to maternal vaginas prior to delivery; control 77% (Cox and Taylor, 1990)
E. coli [3] = details: injected, rats (Michaels et al., 1983)
[4] = oral 0.07-0.21 g/kg body weight, humans (Alton et al., 1997)
[5] = rats
[6] = oral single doses (Alton et al., 1997)
[7] = oral 1 gram, humans (Talent and Gracy, 1996)
[8] = ingested (Martin et al., 1998)
[9] = radiolabeled injection (Martin et al., 1998)
[10] = patient with LAD II (Marquardt et al., 1999)
[11] = oral 50-100 mg/kg body weight, healthy volunteers (Marquardt et al., 1999)

Compound: O=C[C@@H](O)[C@@H](O)[C@H](O)[C@H](O)CO [Mannose, mannose]
Estimated Safe Daily Dose (mg) in 68 kg human [1]: 53,000 mg
Estimated Safe Daily Dose [1]: 779 mg/kg/day
E. coli bacteremia in newborns (E. coli [2]): 25%
time to reduction of E. coli bacteriuria (E. coli [3]): ≤ 1 days
clearance half-time [4]: about 4 hours
time to peak blood mannose concentration [4]: approximately 90 minutes
increase of glycoprotein incorporation in organs ([5]; at 1-8 hours): 2- to 6 fold
time to absorption into the serum ([5]; oral, radiolabeled): ≤ 1 h
single dose that induces osmotic diarrhea [6]: > 200 mg/kg body wt

Estimated Safe Daily Dose (mg) in 68 kg human [1]: 1,000 mg
time to significant rise in serum levels of GlcNAc [7]: ≤ 1 h
Compound: CC(=O)N[C@H]1C(O)O[C@H](CO)[C@@H](O)[C@@H]1O (stereo partly shown) [N-acetylglucosamine]
Estimated Safe Daily Dose [1]: 15 mg/kg/day

fraction of the dose oxidized [8]: about one-half
protein-bound radioactivity in the form of sialic acid [9]: 25-30%
Compound: N[C@H]1C(O)O[C@H](CO)[C@@H](O)[C@@H]1O (stereo partly shown) [Glucosamine, glucosamine]

Estimated Safe Daily Dose (mg) in 68 kg human [1]: 150,000 mg
Compound: O=C[C@H](O)[C@@H](O)[C@H](O)[C@H](O)CO [Glucose, D-glucose]
Estimated Safe Daily Dose [1]: 2,200 mg/kg/d

Estimated Safe Daily Dose (mg) in 68 kg human [1]: 34,000 mg
clearance half-time [11]: 100 min
time to peak serum fucose concentration [11]: 1 h
Compound: C[C@H](O)[C@@H](O)[C@@H](O)[C@H](O)C=O [Fucose, L-fucose]
Estimated Safe Daily Dose [1]: 500 mg/kg/day
clinical outcome of oral supplementation [10]: clinical disappearance of infections and fever

Estimated Safe Daily Dose (mg) in 68 kg human [1]: 50,000 mg
Compound: O=C[C@H](O)[C@@H](O)[C@@H](O)[C@H](O)CO [Galactose, D-galactose]
Estimated Safe Daily Dose [1]: 735 mg/kg/day

Estimated Safe Daily Dose (mg) in 68 kg human [1]: 140 mg
Compound: CC(=O)N[C@H]1[C@H]([C@H](O)[C@H](O)CO)OC(O)(C(=O)O)C[C@@H]1O (stereo partly shown) [Sialic Acid, N-acetylneuraminic acid]
Estimated Safe Daily Dose [1]: 2 mg/kg/day
